Data reported in ChEMBL document CHEMBL1201862, “PubChem BioAssay data set” (2004).
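Assay format: 96-well plates, 48-hour exposure. At the GI50, growth is halved.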 Active and inactive are the calls of the source. Cut-off read from the data, not from the text of the source: active = GI50 up to about 1.1 µM and inactive = higher.

Legend:
Test in all cases: NCI anticancer screen, dose series, 48 h
786-0 = system: 786-0
ACHN = system: ACHN
HCC 2998 = system: HCC 2998
HCT-15 = system: HCT-15
HOP-62 = system: HOP-62
HT-29 = system: HT-29
LOX IMVI = system: LOX IMVI
MOLT-4 = system: MOLT-4
NCI-H226 = system: NCI-H226
OVCAR-3 = system: OVCAR-3
OVCAR-4 = system: OVCAR-4
RPMI-8226 = system: RPMI-8226
SW-620 = system: SW-620
TK-10 = system: TK-10
UACC-257 = system: UACC-257
UACC-62 = system: UACC-62
UO-31 = system: UO-31
EKVX = system: EKVX

SMILES | GI50 (786-0) | GI50 (ACHN) | GI50 (HCC 2998) | GI50 (HCT-15) [µM] | GI50 (HOP-62) | GI50 (HT-29) | GI50 (LOX IMVI) | GI50 (MOLT-4) | GI50 (NCI-H226) | GI50 (OVCAR-3) | GI50 (OVCAR-4) | GI50 (RPMI-8226) | GI50 (SW-620) | GI50 (TK-10) | GI50 (UACC-257) | GI50 (UACC-62) | GI50 (UO-31) | GI50 (EKVX)
CC1(C)C(=O)C(C)(C)C1=NNC(N)=S | > 100 µM (inactive) | > 100 µM (inactive) | > 100 µM (inactive) | > 100 | > 100 µM (inactive) | > 100 µM (inactive) | > 100 µM (inactive) | > 100 µM (inactive) | > 100 µM (inactive) | > 100 µM (inactive) | > 100 µM (inactive) | > 100 µM (inactive) | > 100 µM (inactive) | > 100 µM (inactive) | > 100 µM (inactive) | > 100 µM (inactive) | > 100 µM (inactive) | 
CCOC(=O)C1C(NC(N)=O)N(Cc2ccccc2)C(=O)N1Cc1ccccc1 (configuration not stated) | > 100 µM (inactive) | > 100 µM (inactive) | > 100 µM (inactive) | > 100 | > 100 µM (inactive) | > 100 µM (inactive) | > 100 µM (inactive) | > 100 µM (inactive) |  | > 100 µM (inactive) | > 100 µM (inactive) | > 100 µM (inactive) | > 100 µM (inactive) | > 100 µM (inactive) | > 100 µM (inactive) | > 100 µM (inactive) | > 100 µM (inactive) | > 100 µM (inactive)
COCOCC/C=C/C=O | > 100 µM (inactive) | > 100 µM (inactive) | > 100 µM (inactive) | > 100 |  | > 100 µM (inactive) | > 100 µM (inactive) | > 100 µM (inactive) |  | > 100 µM (inactive) |  | > 100 µM (inactive) | > 100 µM (inactive) | > 100 µM (inactive) | > 100 µM (inactive) | > 100 µM (inactive) | > 100 µM (inactive) | > 100 µM (inactive)
O=c1c2ccccc2nc2n1-c1ccccc1SC2 | > 100 µM (inactive) | 54.7 µM (inactive) | 81.1 µM (inactive) | 54.1 | > 100 µM (inactive) | > 100 µM (inactive) | > 100 µM (inactive) | 21.4 µM (inactive) |  | 64.9 µM (inactive) | 64.3 µM (inactive) | 24.3 µM (inactive) | > 100 µM (inactive) | > 100 µM (inactive) | 39.4 µM (inactive) | 33.7 µM (inactive) | 48.2 µM (inactive) | 25.5 µM (inactive)
CN(C)CCn1cnc2sc3ccccc3c21 | > 100 µM (inactive) | > 100 µM (inactive) | > 100 µM (inactive) | > 100 | > 100 µM (inactive) | > 100 µM (inactive) | > 100 µM (inactive) | > 100 µM (inactive) | 40.4 µM (inactive) | > 100 µM (inactive) | > 100 µM (inactive) |  | > 100 µM (inactive) | > 100 µM (inactive) | > 100 µM (inactive) | > 100 µM (inactive) |  | > 100 µM (inactive)
NC1(C(=O)O)CCC(C(=O)O)CC1 (configuration not stated) | > 100 µM (inactive) | > 100 µM (inactive) | > 100 µM (inactive) |  | > 100 µM (inactive) | > 100 µM (inactive) | > 100 µM (inactive) | > 100 µM (inactive) | > 100 µM (inactive) | > 100 µM (inactive) | > 100 µM (inactive) | > 100 µM (inactive) | > 100 µM (inactive) | > 100 µM (inactive) | > 100 µM (inactive) | > 100 µM (inactive) | > 100 µM (inactive) | > 100 µM (inactive)
CCOC(=O)C(=O)Nc1c(C)cccc1CC | > 100 µM (inactive) | > 100 µM (inactive) | > 100 µM (inactive) |  | > 100 µM (inactive) | > 100 µM (inactive) | > 100 µM (inactive) | > 100 µM (inactive) | > 100 µM (inactive) | > 100 µM (inactive) | > 100 µM (inactive) | > 100 µM (inactive) | > 100 µM (inactive) | > 100 µM (inactive) | > 100 µM (inactive) | > 100 µM (inactive) | > 100 µM (inactive) | > 100 µM (inactive)
CN(C)CC(C)(C)C(=O)/C=C/c1ccccc1 | 15.4 µM (inactive) | 17.9 µM (inactive) |  | 12.6 | 28.4 µM (inactive) | 15.8 µM (inactive) | 11.2 µM (inactive) | 14.4 µM (inactive) | 13.9 µM (inactive) | 17.5 µM (inactive) | 14.2 µM (inactive) | 12.2 µM (inactive) | 14.5 µM (inactive) | 18.2 µM (inactive) | 12.8 µM (inactive) | 13.2 µM (inactive) | 11 µM (inactive) | 17.6 µM (inactive)
Nc1nc(N)c2ncn(CCOC(c3ccccc3)P(=O)(O)O)c2n1 (configuration not stated) | > 100 µM (inactive) | > 100 µM (inactive) | > 100 µM (inactive) | > 100 |  | > 100 µM (inactive) | > 100 µM (inactive) | > 100 µM (inactive) | > 100 µM (inactive) | > 100 µM (inactive) |  |  | > 100 µM (inactive) | > 100 µM (inactive) | > 100 µM (inactive) | > 100 µM (inactive) | > 100 µM (inactive) | > 100 µM (inactive)
Cc1cc(C2CCCCC2)n(O)c(=O)c1 [CICLOPIROX OLAMINE] | 9.48 µM (inactive) | 3.97 µM (inactive) | 4.97 µM (inactive) | 4.39 |  | 9.08 µM (inactive) | 11.9 µM (inactive) | 1.93 µM (inactive) |  |  |  | 3.56 µM (inactive) | 5.85 µM (inactive) | 37.1 µM (inactive) | 1.62 µM (inactive) | 3.03 µM (inactive) | 6.32 µM (inactive) | 4.04 µM (inactive)
CNS(=O)(=O)NNS(=O)(=O)c1ccc(C)cc1 | > 100 µM (inactive) | > 100 µM (inactive) | > 100 µM (inactive) |  | > 100 µM (inactive) | > 100 µM (inactive) |  | > 100 µM (inactive) |  | > 100 µM (inactive) | > 100 µM (inactive) | > 100 µM (inactive) | > 100 µM (inactive) | > 100 µM (inactive) | > 100 µM (inactive) | > 100 µM (inactive) | > 100 µM (inactive) | > 100 µM (inactive)
Cc1cc(OCC(O)CO)ccc1-c1ccccc1 (configuration not stated) | > 100 µM (inactive) | > 100 µM (inactive) | > 100 µM (inactive) | 37.2 |  | 70.1 µM (inactive) |  | > 100 µM (inactive) | > 100 µM (inactive) | > 100 µM (inactive) | > 100 µM (inactive) |  | 6.65 µM (inactive) | > 100 µM (inactive) | 52.5 µM (inactive) | > 100 µM (inactive) | > 100 µM (inactive) | 80.2 µM (inactive)
COc1cc(C(=O)CC2(O)C(=O)Nc3c(Cl)cc(Cl)cc32)ccc1O (configuration not stated) | > 100 µM (inactive) | 57.1 µM (inactive) | 31.5 µM (inactive) | 64 | 37.5 µM (inactive) | 29.4 µM (inactive) | > 100 µM (inactive) | 26.3 µM (inactive) | 40 µM (inactive) | 46.3 µM (inactive) | 60.8 µM (inactive) | 24.4 µM (inactive) | 71.6 µM (inactive) | > 100 µM (inactive) | 43.6 µM (inactive) |  | 37.9 µM (inactive) | 94 µM (inactive)
COc1cc(C)c2c(c1C)OC(=O)c1c(C)c(Cl)c(O)c(C=O)c1O2 | 10.4 µM (inactive) | 14.7 µM (inactive) | 19.5 µM (inactive) |  | 20.3 µM (inactive) | 20.4 µM (inactive) | 16 µM (inactive) | 9.79 µM (inactive) | 23.2 µM (inactive) | 1.63 µM (inactive) |  | 14 µM (inactive) | 31.8 µM (inactive) | 29 µM (inactive) | 20 µM (inactive) | 15.7 µM (inactive) | 11.2 µM (inactive) | 10.3 µM (inactive)
O=C1N2Cc3c4ccc5c3CN3C(=O)N6Cc7c(ccc(c7CN1C6(c1ccccc1)C23c1ccccc1)OCCOCCNCCOCCO4)OCCOCCNCCOCCO5 (configuration not stated) | 31.5 µM (inactive) | 22.5 µM (inactive) | 34.9 µM (inactive) | 28.3 | > 100 µM (inactive) | 13.9 µM (inactive) |  | 19.7 µM (inactive) | > 100 µM (inactive) | 15 µM (inactive) | > 100 µM (inactive) | 11.7 µM (inactive) | 18 µM (inactive) | 26.9 µM (inactive) | 16.9 µM (inactive) | 42.4 µM (inactive) | 38.8 µM (inactive) | > 100 µM (inactive)
N#CN1CCC=C(c2cc3ccccc3[nH]2)C1 | > 448 µM (inactive) | 272 µM (inactive) | 185 µM (inactive) | 370 | > 448 µM (inactive) | > 448 µM (inactive) | 230 µM (inactive) | 230 µM (inactive) | > 448 µM (inactive) | 92.5 µM (inactive) |  | 170 µM (inactive) | 414 µM (inactive) | > 448 µM (inactive) | 199 µM (inactive) | 201 µM (inactive) |  | 270 µM (inactive)
C=CC1(C)/C(=N\O)C(C)(CC)C(=O)N1O (configuration not stated) | > 100 µM (inactive) | > 100 µM (inactive) |  | > 100 | > 100 µM (inactive) | > 100 µM (inactive) | > 100 µM (inactive) | > 100 µM (inactive) |  | > 100 µM (inactive) | > 100 µM (inactive) |  | > 100 µM (inactive) | > 100 µM (inactive) | > 100 µM (inactive) | > 100 µM (inactive) | > 100 µM (inactive) | > 100 µM (inactive)
Cc1cccc(C)c1NC(=O)CCCC(=O)CC(=O)/C=C/c1ccccc1 | > 100 µM (inactive) | > 100 µM (inactive) |  | > 100 |  | > 100 µM (inactive) | > 100 µM (inactive) | > 100 µM (inactive) |  | > 100 µM (inactive) | > 100 µM (inactive) | > 100 µM (inactive) | > 100 µM (inactive) | > 100 µM (inactive) | > 100 µM (inactive) | > 100 µM (inactive) | > 100 µM (inactive) | 
